Measured values published in patent US20130338106A1, “COMPOUNDS INHIBITING LEUCINE-RICH REPEAT KINASE ENZYME ACTIVITY” (priority 2011, published 2013).

Molecular target: T1, LRRK2 G2019S mutant kinase (Homo sapiens, UniProt Q5S007, G2019S)
T1 construct: GST; purchased Invitrogen PV4882
Assay: LRRK2 G2019S LanthaScreen TR-FRET kinase assay
Format: biochemical
Conditions: LRRK2 G2019S GST-tagged protein, 100 μM ATP, LRRKtide substrate; read-out: IC50 (potency)
Description: Activity of compounds against LRRK2 G2019S mutant kinase function was tested in a LANTHAScreen® assay as follows: Compounds were diluted in 100% DMSO to the desired test concentrations in white, low-volume 384-well plates (PerkinElmer ProxiPlate® PN: 6008280). TR-FRET kinase reactions (10 μL) were performed with 75 nM Fluorescein-ERM (LRRKtide, Invitrogen, PN:PV4901) substrate in a final assay buffer containing 100 μM ATP and 2 mM DTT diluted in commercially available Kinase Buffer S (Invitrogen PN: PV5213). The final solvent concentration in the assay was 1% DMSO. Reactions were initiated with the addition of 10 ng/well of LRRK2 02019S, GST-tagged protein (Invitrogen PN: PV4882). After incubation of the foil sealed reaction plates at room temperature with low speed mixing for 1 hour, the kinase reaction was stopped and the amount of substrate phosphorylation was detected by addition of 10 μL of 10 mM EDTA and 2 nM Tb-anti-pERM (pLRRKtide antibody, Invitrogen, PN: PV4898) antibody in TR-FRET dilution buffer (Invitrogen PN: PV3574). After a 30 minute incubation at room temperature with low speed mixing, foil seals were removed and measurements were obtained on a PerkinElmer EnVision with excitation 340 nm, emission 520 nm (channel 1): 495 nm (channel 2) settings. Generation of raw data and workup of data to derive the IC50 (potency) and maximal inhibition at concentrations tested were performed using Merck's Assay Data Analyzer (ADA) software.

T1 sequence (Q5S007 whole entry G2019S): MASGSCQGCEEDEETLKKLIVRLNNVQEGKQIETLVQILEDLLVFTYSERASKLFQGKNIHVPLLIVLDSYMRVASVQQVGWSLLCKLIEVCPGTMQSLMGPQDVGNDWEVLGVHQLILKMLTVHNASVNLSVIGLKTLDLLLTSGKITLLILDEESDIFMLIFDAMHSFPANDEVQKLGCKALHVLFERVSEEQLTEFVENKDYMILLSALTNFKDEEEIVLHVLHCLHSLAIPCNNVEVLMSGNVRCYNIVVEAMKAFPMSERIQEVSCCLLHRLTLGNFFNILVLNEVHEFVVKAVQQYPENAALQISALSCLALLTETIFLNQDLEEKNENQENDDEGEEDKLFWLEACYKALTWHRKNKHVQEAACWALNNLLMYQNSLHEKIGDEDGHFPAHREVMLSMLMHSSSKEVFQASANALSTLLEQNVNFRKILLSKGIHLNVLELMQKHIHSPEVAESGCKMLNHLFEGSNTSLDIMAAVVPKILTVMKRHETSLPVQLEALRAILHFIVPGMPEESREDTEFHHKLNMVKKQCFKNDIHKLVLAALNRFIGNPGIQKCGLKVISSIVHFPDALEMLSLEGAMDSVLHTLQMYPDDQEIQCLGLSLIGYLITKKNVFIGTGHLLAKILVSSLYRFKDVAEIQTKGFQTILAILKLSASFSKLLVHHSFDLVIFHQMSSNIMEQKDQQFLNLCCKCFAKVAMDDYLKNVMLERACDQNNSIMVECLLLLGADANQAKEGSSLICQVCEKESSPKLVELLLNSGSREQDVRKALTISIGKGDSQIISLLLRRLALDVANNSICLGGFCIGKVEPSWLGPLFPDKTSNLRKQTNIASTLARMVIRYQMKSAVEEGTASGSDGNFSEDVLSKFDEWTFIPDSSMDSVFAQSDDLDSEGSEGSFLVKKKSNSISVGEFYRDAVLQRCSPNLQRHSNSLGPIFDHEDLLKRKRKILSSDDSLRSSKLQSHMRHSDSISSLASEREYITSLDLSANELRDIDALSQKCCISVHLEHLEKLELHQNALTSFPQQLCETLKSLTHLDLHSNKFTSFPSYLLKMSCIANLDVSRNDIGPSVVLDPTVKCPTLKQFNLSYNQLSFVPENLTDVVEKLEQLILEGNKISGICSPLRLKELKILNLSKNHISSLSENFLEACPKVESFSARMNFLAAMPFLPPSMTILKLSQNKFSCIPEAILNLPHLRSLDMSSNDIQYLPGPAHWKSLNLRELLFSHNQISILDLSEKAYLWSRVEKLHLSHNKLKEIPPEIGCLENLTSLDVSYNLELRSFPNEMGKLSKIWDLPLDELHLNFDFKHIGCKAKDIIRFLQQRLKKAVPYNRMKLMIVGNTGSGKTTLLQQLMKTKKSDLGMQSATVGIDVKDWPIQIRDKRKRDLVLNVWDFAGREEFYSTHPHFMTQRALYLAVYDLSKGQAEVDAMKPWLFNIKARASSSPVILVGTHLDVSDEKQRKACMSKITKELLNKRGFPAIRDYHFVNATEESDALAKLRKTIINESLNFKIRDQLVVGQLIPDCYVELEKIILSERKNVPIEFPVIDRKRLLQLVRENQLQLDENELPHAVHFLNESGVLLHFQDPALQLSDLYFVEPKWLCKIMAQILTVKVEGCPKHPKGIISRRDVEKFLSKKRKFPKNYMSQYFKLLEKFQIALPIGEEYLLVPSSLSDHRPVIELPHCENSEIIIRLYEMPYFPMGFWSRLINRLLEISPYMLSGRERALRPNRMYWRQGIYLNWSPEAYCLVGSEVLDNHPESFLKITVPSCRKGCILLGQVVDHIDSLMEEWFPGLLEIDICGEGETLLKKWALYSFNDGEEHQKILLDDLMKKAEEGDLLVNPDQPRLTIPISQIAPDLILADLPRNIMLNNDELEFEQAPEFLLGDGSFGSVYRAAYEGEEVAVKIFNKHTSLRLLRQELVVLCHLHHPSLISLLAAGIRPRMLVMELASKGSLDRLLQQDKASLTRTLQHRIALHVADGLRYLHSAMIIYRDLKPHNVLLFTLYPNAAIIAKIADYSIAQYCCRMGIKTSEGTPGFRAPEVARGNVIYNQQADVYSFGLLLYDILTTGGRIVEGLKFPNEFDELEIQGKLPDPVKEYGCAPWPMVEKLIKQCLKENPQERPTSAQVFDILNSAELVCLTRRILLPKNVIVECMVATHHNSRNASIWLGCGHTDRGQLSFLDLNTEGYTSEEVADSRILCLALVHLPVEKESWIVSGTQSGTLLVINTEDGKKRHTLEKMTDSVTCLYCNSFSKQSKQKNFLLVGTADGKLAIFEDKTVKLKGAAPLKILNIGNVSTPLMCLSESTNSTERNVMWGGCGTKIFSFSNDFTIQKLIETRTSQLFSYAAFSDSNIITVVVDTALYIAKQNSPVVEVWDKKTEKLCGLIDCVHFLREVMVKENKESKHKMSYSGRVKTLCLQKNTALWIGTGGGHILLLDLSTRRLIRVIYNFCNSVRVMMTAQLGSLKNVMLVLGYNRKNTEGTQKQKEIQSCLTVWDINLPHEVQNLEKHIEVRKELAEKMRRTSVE

| Structure (SMILES) | IC50 [nM] |
| --- | --- |
| CSc1cccc(NC(=O)n2ccc(-c3sc(SC4CCCC4)c4c3CC(C)(C)CC4=O)n2)c1 [Example 61, 3-[3-(Cyclopentylsulfanyl)-6,6-dimethyl-4-oxo-4,5,6,7-tetrahydro-2-benzothiophen-1-yl]-N-[3-(methylsulfanyl)phenyl]-1H-pyrazole-1-carboxamide] | 110 |
| CC1(C)CC(=O)c2c(SCCCCl)sc(-c3cc[nH]n3)c2C1 [Example 33, 3-[(3-Chloropropyl)sulfanyl]-6,6-dimethyl-1-(1H-pyrazol-3-yl)-6,7-dihydro-2-benzothiophen-4(5H)-one] | 120 |
| CS(=O)(=O)c1sc(-c2cc[nH]n2)c2c1C(=O)CCC2 [Example 2, 3-(Methylsulfonyl)-1-(1H-pyrazol-3-yl)-6,7-dihydro-2-benzothiophen-4(5H)-one] | 3500 |
| CCCCSc1sc(-c2cc[nH]n2)c2c1C(=O)CC(C)(C)C2 [Example 27, 3-(Butylsulfanyl)-6,6-dimethyl-1-(1H-pyrazol-3-yl)-6,7-dihydro-2-benzothiophen-4(5H)-one] | 140 |
| CC1(C)CC(=O)c2c(NC3CCCC3)sc(-c3ccn(C(=O)Nc4ccc(C#N)cc4)n3)c2C1 [Example 74, N-(4-Cyanophenyl)-3-[3-(cyclopentylamino)-6,6-dimethyl-4-oxo-4,5,6,7-tetrahydro-2-benzothiophen-1-yl]-1H-pyrazole-1-carboxamide] | 190 |
| Cc1nnc(Sc2sc(-c3cc[nH]n3)c3c2C(=O)CC(C)(C)C3)s1 [Example 32, 6,6-Dimethyl-3-[(5-methyl-1,3,4-thiadiazol-2-yl)sulfanyl]-1-(1H-pyrazol-3-yl)-6,7-dihydro-2-benzothiophen-4(5H)-one] | 4000 |
| CC1(C)CC(=O)c2c(SC3CCCC3)sc(-c3ccn(C(=O)Nc4cccc(Cl)c4)n3)c2C1 [Example 67, N-(3-Chlorophenyl)-3-[3-(cyclopentylsulfanyl)-6,6-dimethyl-4-oxo-4,5,6,7-tetrahydro-2-benzothiophen-1-yl]-1H-pyrazole-1-carboxamide] | 330 |
| CC(C)Nc1sc(-c2cc[nH]n2)c2c1C(=O)CC(C)(C)C2 [Example 37, 6,6-Dimethyl-3-(propan-2-ylamino)-1-(1H-pyrazol-3-yl)-6,7-dihydro-2-benzothiophen-4(5H)-one] | 180 |
| CCCSc1sc(-c2cc[nH]n2)c2c1C(=O)CC(C)(C)C2 [Example 28, 6,6-Dimethyl-3-(propylsulfanyl)-1-(1H-pyrazol-3-yl)-6,7-dihydro-2-benzothiophen-4(5H)-one] | 160 |
| CCCC(=O)n1ccc(-c2sc(SC3CCCC3)c3c2CC(C)(C)CC3=O)n1 [Example 76, 1-(1-Butanoyl-1H-pyrazol-3-yl)-3-(cyclopentylsulfanyl)-6,6-dimethyl-6,7-dihydro-2-benzothiophen-4(5H)-one] | 980 |
| CC1(C)CC(=O)c2c(SC3CCCC3)sc(-c3ccn(C(=O)Nc4ccc(C(F)(F)F)cc4)n3)c2C1 [Example 59, 3-[3-(Cyclopentylsulfanyl)-6,6-dimethyl-4-oxo-4,5,6,7-tetrahydro-2-benzothiophen-1-yl]-N-[4-(trifluoromethyl)phenyl]-1H-pyrazole-1-carboxamide] | 93 |
| CSc1sc(-c2cc[nH]n2)c2c1C(=O)CC(C)(C)C2 [Example 5, 6,6-Dimethyl-3-(methylsulfanyl)-1-(1H-pyrazol-3-yl)-6,7-dihydro-2-benzothiophen-4(5H)-one] | 230 |
| CC1(C)CC(=O)c2c(SC3CCCC3)sc(-c3ccn(C(=O)Nc4ccc(C#N)cc4)n3)c2C1 [Example 64, N-(4-Cyanophenyl)-3-[3-(cyclopentylsulfanyl)-6,6-dimethyl-4-oxo-4,5,6,7-tetrahydro-2-benzothiophen-1-yl]-1H-pyrazole-1-carboxamide] | 85 |
| CC1(C)CC(=O)c2c(SCc3ccco3)sc(-c3cc[nH]n3)c2C1 [Example 15, 3-[(Furan-2-ylmethyl)sulfanyl]-6,6-dimethyl-1-(1H-pyrazol-3-yl)-6,7-dihydro-2-benzothiophen-4(5H)-one] | 450 |
| CCC(C)Sc1sc(-c2cc[nH]n2)c2c1C(=O)CC(C)(C)C2 (stereo not drawn) [Example 30, 3-(Butan-2-ylsulfanyl)-6,6-dimethyl-1-(1H-pyrazol-3-yl)-6,7-dihydro-2-benzothiophen-4(5H)-one] | 180 |
| O=C1CCCc2c(-c3ccn(C(=O)Nc4ccc(Cl)cc4)n3)sc(SC3CCCC3)c21 [Example 86, N-(4-chlorophenyl)-3-[3-(cyclopentylsulfanyl)-4-oxo-4,5,6,7-tetrahydro-2-benzothiophen-1-yl]-1H-pyrazole-1-carboxamide] | 66 |
| COc1ccc(NC(=O)n2ccc(-c3sc(SC4CCCC4)c4c3CC(C)(C)CC4=O)n2)cc1 [Example 58, 3-[3-(Cyclopentylsulfanyl)-6,6-dimethyl-4-oxo-4,5,6,7-tetrahydro-2-benzothiophen-1-yl]-N-(4-methoxyphenyl)-1H-pyrazole-1-carboxamide] | 110 |
| CC1(C)CC(=O)c2c(N[C@H]3CC[C@H](O)CC3)sc(-c3cc[nH]n3)c2C1 [Example 51, 3-[(trans-4-Hydroxycyclohexyl)amino]-6,6-dimethyl-1-(1H-pyrazol-3-yl)-6,7-dihydro-2-benzothiophen-4(5H)-one] | 220 |
| CC1(C)CC(=O)c2c(Oc3ccccc3)sc(-c3cc[nH]n3)c2C1 [Example 55, 6,6-Dimethyl-3-phenoxy-1-(1H-pyrazol-3-yl)-6,7-dihydro-2-benzothiophen-4(5H)-one] | 4200 |
| CC1(C)CC(=O)c2c(SC3CCCC3)sc(-c3ccn(C(=O)c4ccc(Cl)nc4)n3)c2C1 [Example 80, 1-{1-[(6-Chloropyridin-3-yl)carbonyl]-1H-pyrazol-3-yl}-3-(cyclopentylsulfanyl)-6,6-dimethyl-6,7-dihydro-2-benzothiophen-4(5H)-one] | 570 |
| CSc1sc(-c2ccn(C(=O)OC(C)(C)C)n2)c2c1C(=O)CCC2 [Example 85, tert-Butyl 3-[3-(methylsulfanyl)-4-oxo-4,5,6,7-tetrahydro-2-benzothiophen-1-yl]-1H-pyrazole-1-carboxylate] | 1100 |
| CC1(C)CC(=O)c2c(NCc3ccccn3)sc(-c3cc[nH]n3)c2C1 [Example 48, 6,6-Dimethyl-1-(1H-pyrazol-3-yl)-3-[(pyridin-2-ylmethyl)amino]-6,7-dihydro-2-benzothiophen-4(5H)-one] | 620 |
| COCCSc1sc(-c2cc[nH]n2)c2c1C(=O)CC(C)(C)C2 [Example 12, 3-[(2-Methoxyethyl)sulfanyl]-6,6-dimethyl-1-(1H-pyrrazol-3-yl)-6,7-dihydro-2-henzothiophen-4(5H)-one] | 290 |
| CC(C)CSc1sc(-c2cc[nH]n2)c2c1C(=O)CC(C)(C)C2 [Example 26, 6,6-Dimethyl-3-[(2-methylpropyl)sulfanyl]-1-(1H-pyrazol-3-yl)-6,7-dihydro-2-benzothiophen-4(5H)-one] | 120 |
